Tests used:
[1] = system: primary patient-derived renal normal tissue cells (NT); assay: Gene expression profiling by high-throughput RT-qPCR in primary renal normal tissue cells; format: cell-based, human; conditions: normal tissue (primary kidney cells), 20 µM cisplatin, 24 h
Experimental: The renal cell line […] (conditionally immortalized proximal tubule epithelial cells), which was purchased from Dr. Martijn Wilmer, was used in the current study. […] For maintaining the proliferation status, cells were cultured at 33 °C in a humidified atmosphere of 5% CO2 in medium supplemented with 1% penicillin/streptomycin (P/S) (Sigma-Aldrich, Steinheim, Germany). For the experiments, […] were seeded at a density of 55,000 cells/cm^2 in cell culture flasks and were cultivated for 24 h at 33 °C. After 24 h, cells were transferred to 37 °C for maturation, while the medium was refreshed with medium containing no P/S. Cells were kept at 37 °C for 7 days while the medium was replaced every 2-3 days. For comparative analysis with the data obtained with the permanent cell line […], studies were performed with primary patient-derived renal normal tissue cells (NT), which were obtained from patients at the University Medical Center Mainz. Cells were isolated from primary renal cancer samples of patients who underwent nephrectomy at the Department of Urology, University Medical Center Mainz. The study was performed in agreement with the Declaration of Helsinki and approved by local ethics committee (No. 837.005.09, […]-Pfalz, Mainz, Germany). Each patient provided informed consent. […]

[2] = system: testicular germ cell tumors; design: method as in PMID 12835671; conditions: combination therapy against testicular germ cell tumors ref 2; cited from earlier work
MATE1 = conditions: cited from earlier work
ciPTEC [3] = assay: Cytotoxicity by relative cell count (RCC); format: cell-based, human; conditions: 24 h incubation; for cell number compared to the control: 48 h post-cultivation; for IC50: cell count after 48 h post-cultivation
Experimental: The renal cell line ciPTEC (conditionally immortalized proximal tubule epithelial cells), which was purchased from Dr. Martijn Wilmer, was used in the current study. ciPTECs were cultured in DMEM-HAM’s F12 phenol red-free medium (Gibco, Thermo Fisher Scientific, Dreieich, Germany) supplemented with 10% fetal calf serum (FCS) (Invitrogen, Darmstadt, Germany), 5 µg/mL insulin, 5 µg/mL transferrin, 5 ng/mL selenium, 36 ng/mL hydrocortisone, 10 ng/mL EGF (epidermal growth factor) and 40 pg/mL tri-iodothyronine (Sigma-Aldrich, Steinheim, Germany). For maintaining the proliferation status, cells were cultured at 33 °C in a humidified atmosphere of 5% CO2 in medium supplemented with 1% penicillin/streptomycin (P/S) (Sigma-Aldrich, Steinheim, Germany). […] For comparative analysis with the data obtained with the permanent cell line ciPTEC, studies were performed with primary patient-derived renal normal tissue cells (NT), which were obtained from patients at the University Medical Center Mainz. Cells were isolated from primary renal cancer samples of patients who underwent nephrectomy at the Department of Urology, University Medical Center Mainz. The study was performed in agreement with the Declaration of Helsinki and approved by local ethics committee (No. 837.005.09, Landesärztekammer Rheinland-Pfalz, Mainz, Germany). Each patient provided informed consent. NT cells were cultivated in RPMI-1640 medium (Sigma-Aldrich, Steinheim, Germany) containing 10% FCS and 5% P/S at 37 °C in a humidified atmosphere of 5% CO2.
Toxicity was determined by relative cell count (RCC). ciPTECs were seeded in duplicates in T25 flasks and cultivated as stated before. […] Cell count was then determined using a CASY® cell counter (CASY® TTC Cell Counter & Analyzer System). The cell counts of the treated samples were normalized to the untreated control to obtain the RCC expressed as percentage. RCC was determined in three independent experiments.

ciPTECs = system: ciPTECs; design: method as in PMID 26821801; conditions: ciPTECs treated with cisplatin for 24 h, MTT assay ref 45; read-out: TC50 (≡ IC50); cited from earlier work
MATE2-K = conditions: cited from earlier work
[4] = Anti-oxidant capacity: fluorescein consumption induced by AAPH-derived peroxyl radicals; conditions: for effect on consumption of fluorescein: fluorescein 10 µM, AAPH 50 mM, phosphate buffer pH 7.4, 37 °C, cisplatin 10 µM, PN149 10, 25, 50 µM
Experimental: The influence of PN149 on the rates of the reaction of fluorescein with free radicals generated by the azo initiator 2,2′-azobis(2-amidinopropane) dihydrochloride (AAPH) was studied according to [35] in phosphate buffer (PB, 50 mM, pH 7.4) by measuring the decay of the probe at 494 nm with absorption spectrophotometer Specord UV–Vis equipped with a thermostated cell maintained at 37 °C. […] The lag phase of the reaction means no changes in the optical density of the reaction mixture. AAPH and fluorescein were purchased from Sigma-Aldrich, JM216 [e-ammine-d-(cyclohexylamine)-a,f-bis(acetato)-b,c-dichloroplatinum(IV)] was obtained as described in [36].

ciPTEC [5] = assay: Gene expression profiling by high-throughput RT-qPCR in ciPTECs; format: cell-based, human; conditions: 24 h; for expression of genes related to transcription factors (general): PN149 20 µM, cisplatin 50 µM, oxaliplatin 150 µM; for HMOX1 gene expression: ROS-inducible gene; for IL-8 gene expression: marker for inflammation; for PMAIP1 gene expression: pro-apoptotic gene
Experimental: Gene expression profiles were generated using a high-throughput RT-qPCR method previously established in the institute. ciPTECs were cultivated in T25 flasks as stated before. […] RNA isolation and generation of gene expression profiles using a Fluidigm dynamic array on a BioMark™ (Rheinau, Germany) system were performed as previously described. For comparative analysis of ciPTEC with primary kidney cells, 5 × 10^5 NT cells were seeded in 10 cm dishes and cultivated for 24 h. […] Gene expression profiles in ciPTEC were generated in three independent experiments. Due to the limited amount of tissue material, gene expression analysis in primary kidney cells was performed in two independent experiments.

ciPTEC [6] = assay: Intracellular platinum accumulation by AAS in ciPTECs; format: in vitro ADME, human; conditions: 2 h
Experimental: The renal cell line ciPTEC (conditionally immortalized proximal tubule epithelial cells), which was purchased from Dr. Martijn Wilmer, was used in the current study. ciPTECs were cultured in DMEM-HAM’s F12 phenol red-free medium (Gibco, Thermo Fisher Scientific, Dreieich, Germany) supplemented with 10% fetal calf serum (FCS) (Invitrogen, Darmstadt, Germany), 5 µg/mL insulin, 5 µg/mL transferrin, 5 ng/mL selenium, 36 ng/mL hydrocortisone, 10 ng/mL EGF (epidermal growth factor) and 40 pg/mL tri-iodothyronine (Sigma-Aldrich, Steinheim, Germany). For maintaining the proliferation status, cells were cultured at 33 °C in a humidified atmosphere of 5% CO2 in medium supplemented with 1% penicillin/streptomycin (P/S) (Sigma-Aldrich, Steinheim, Germany). […]
Atomic absorption spectroscopy (AAS) was used to determine the intracellular accumulation after treatment with the platinum compounds. ciPTECs were seeded in T75 flasks and cultivated as stated before. […] Cells were then harvested via centrifugation and total cell count was determined. […] The residue was dissolved in 0.2% HNO3 and platinum amount was analyzed at a wavelength of […] in a graphite furnace using a PinAAcle 900 T (Perkin Elmer, Waltham, MA, USA). […] Intracellular accumulation was determined in three independent experiments and was calculated as ng Pt/10^6 cells.

[7] = system: organic cation transporter 2 (OCT2); design: method as in PMID 17582384, PMID 21144842; conditions: cited from earlier work

Row | Molecule | expression of DNA repair-related genes [1] | cure rates [2] | affinity for MATE1 (MATE1) | cell number compared to the control (ciPTEC [3]; 50 µM) | IC50 (ciPTEC [3]) | IC50 (ciPTECs) | affinity for MATE2-K (MATE2-K) | effect on consumption of fluorescein [4] | expression of DNA repair-related genes (ciPTEC [5]; 20 µM cisplatin) | NFKB2 gene expression (ciPTEC [5]) | expression of genes related to transcription factors (general) (ciPTEC [5]) | HMOX1 gene expression (ciPTEC [5]) | IL-8 gene expression (ciPTEC [5]) | PMAIP1 gene expression (ciPTEC [5]) | kinetics of fluorescein consumption ([4]; JM216 10 M as printed, data not shown) | ng Pt/10^6 Cells (platinum accumulation) (ciPTEC [6]; 50 µM) | ng Pt/10^6 Cells (platinum accumulation) (ciPTEC [6]; 300 µM carboplatin) | uptake via / affinity to OCT2 [7] | cell number compared to the control (ciPTEC [3]; concentration not stated (Figure 2A)) | HSPA1A gene expression (ciPTEC [5]; heat-shock sensitive gene)
1 | N.N.[Cl][Pt][Cl] [Cisplatin] | reduced transcript levels | over 80% | only low affinity for MATE1 | less than 10% | 13 µM | 34 µM | no affinity for MATE2-K | only slightly slowed down the consumption of fluorescein | increased expression of several repair-related genes | slightly enhanced | strong down-regulation of gene transcripts | slightly lesser effects | increased transcript levels | strong concentration-dependent increase | – | – | – | – | – | –
2 | CC(=O)[O-].CC(=O)[O-].N.NC1CCCCC1.[Cl-].[Cl-].[Pt+4] [JM216, e-ammine-d-(cyclohexylamine)-a,f-bis(acetato)-b,c-dichloroplatinum(IV)] | – | – | – | – | – | – | – | – | – | – | – | – | – | – | practically coincided with curve 2 for cisplatin | – | – | – | – | –
3 | O=C1[O][Pt]2([NH][C@@H]3CCCC[C@H]3[NH]2)[O]C1=O [Oxaliplatin] | – | – | substrate for both MATE1 and MATE2-K | – | 51 µM | – | – | – | – | slightly enhanced | widespread gene repression was restricted to the highest concentration used | slightly lesser effects | increased transcript levels | strong concentration-dependent increase | – | 11 ± 2 ng Pt/10^6 cells | – | – | – | –
4 | N.N.O=C([O-])C1(C(=O)[O-])CCC1.[Pt+2] [Carboplatin] | – | – | – | – | 175 µM | – | – | – | – | repressed transcript levels | no general down-regulation | strongly induced | repressed gene expression | strong concentration-dependent increase | – | – | 18 ± 2 ng Pt/10^6 cells | no affinity to this transporter | – | –
5 | e-ammine-d-(3-amino-2,2,5,5-tetramethylpyrrolidine-1-oxyl)-a,f-bis(butanoato)-b,c-dichloro-platinum(IV) [PN149] | – | – | – | – | 6 µM | – | – | effectively inhibited the consumption of fluorescein | – | repressed transcript levels | widespread gene repression | strongly induced | repressed gene expression | peaked at 20 µM | – | – | – | – | less than 5% | strong concentration-dependent increase

From article PMC8394219, “In Vitro Nephrotoxicity Studies of Established and Experimental Platinum-Based Compounds” (Biomedicines, 2021)
